Data as given in the COVID Moonshot data (paper PMC7615835).
“And” between values parts separate entries of the source, which are not always exact repeats. Equal values may be shown once.

Tests used:
[1] = helaace2
SARS-CoV-2 (SARS-CoV-2) [2] = settings: vero6
[3] = a549
[4] = calu3
SARS-CoV-2 (SARS-CoV-2) [5] = settings: helaace2

SMILES: O=C(Nc1cncc2ccccc12)C1CN(S(=O)(=O)CC2CNC2)Cc2ccc(Cl)cc21 (configuration not stated)
- CC50 [1]: > 20000 nM

SMILES: NC(=O)CN1Cc2ccc(Cl)cc2C(C(=O)Nc2cncc3ccccc23)C1 (configuration not stated)
- IC90 (SARS-CoV-2 (SARS-CoV-2) [2]): < 40 nM

SMILES: O=C(Nc1cncc2ccccc12)C1CCNc2cc(Cl)c(Cl)cc21 (configuration not stated)
- CC50 [3]: < 22.9 nM

SMILES: CNC(=O)c1cc2c(NC(=O)C3CCOc4ccc(Cl)cc43)cncc2s1 (configuration not stated)
- IC50 (SARS-CoV-2 (SARS-CoV-2) [2]): 568 nM

SMILES: Cc1ccncc1NC(=O)Cc1cc(Cl)cc(OC2CC(=O)N2)c1 (configuration not stated)
- CC50 [4]: 63500 nM

SMILES: O=C1NCC(C(=O)Nc2cncc3ccccc23)c2cc(Cl)ccc21 (configuration not stated)
- IC90 (SARS-CoV-2 (SARS-CoV-2) [2]): > 5000 nM and 2280 nM

SMILES: CCC(CC)COC(=O)[C@H](C)NP(=O)(OC[C@H]1O[C@@](C#N)(c2ccc3c(N)ncnn23)[C@H](O)[C@@H]1O)Oc1ccccc1 (stereo in doubt)
- IC50 (SARS-CoV-2 (SARS-CoV-2) [5]): 240 nM
